Data published in US8337828B2, “Use of thymosin alpha 1, alone or in combination with PTX3 or ganciclovir, for the treatment of cytomegalovirus infection” (priority 2006, dated 2012).
Ends that are not written are not given here.

Assays:
[1] = system: human non-small cell lung cancer ("NSCLC") cells; conditions: subcutaneous administration; cited from earlier work
MCMV = MCMV infection in mice, virus titers by standard plaque assay on tissues; assay type: in vivo, BALB/c and C57BL6 mice
Experimental: BALB/c (FIG. 1a) and C57BL6 (FIG. 1b) mice were infected with 1×10^5 or 5×10^5 PFU of MCMV, respectively. Virus titers were quantified on MEF cells by standard plaque assay on tissues removed at different times (FIG. 1a) or a week after infection (FIG. 1b) and expressed as log 10(mean±standard errors, SE). Thymosin alpha 1 (200 μg/kg given for 7 or 14 days) and GCV (40 mg/kg given three times a week) were administered beginning the day of the infection. Controls received the scrambled peptide. Results are representative of 4 independent experiments. Bars indicate the standard errors. *P<0.05, viral load between treated and untreated mice.
BALB/c or C57BL6 mice were infected with 10^5 or 5×10^5 PFU of MCMV, respectively. Virus titers, expressed as log 10, were quantified on MEF cells by standard plaque assay on lung tissues removed 7 days after the infection. Tα1 (200 μg/kg/daily for a week) and/or GCV (40 mg/kg, three times a week) were administered beginning the day of the infection. Cytokine (pg/ml) levels in culture supernatants of spleen cells (7 days) were determined by ELISA assay. Bars indicate the standard errors. *P<0.05, treated vs untreated mice. Results are representative of 3 independent experiments.
Inbred C57BL6 and BALB/c mice were injected intraperitoneally (i.p.) with 1×10^5 (BALB/c) or 5×10^5 (C57BL6) plaque forming units (PFU) of MCMV. Virus titers were quantified on MEF cells by standard plaque assay on tissues removed a day after treatment. Treatments were as follow: Tα1 ([…]) and PTX3 (1 mg/k/ip) (SIGMA-Tau, Pomezia, Rome, Italy) were given daily for 7 consecutive days beginning the day of the infection. Controls received the scrambled peptide. All organs from uninfected animals were negative viruses. Virus titers are expressed as log 10 (mean±standard errors, SE).
Mice. Wild-type (WT) inbred C57BL6 and BALB/c mice, 8 to 12 weeks old, were purchased from Charles River Breeding Laboratories (Calco, Italy). Pairs of homozygous TLR9-(TLR9−/−), TLR4-(TLR4−/−), and MyD88-(MyD88−/−)-deficient mice (on the C57BL6 background), were bred under specific pathogen-free conditions at the breeding facilities of the University of Perugia, Perugia, Italy. Experiments were performed following protocols approved by the institutional animal committee and in accordance with European Economic Community Council Directive as well as institutional animal care and use guidelines.
Virus, infection and treatments. Stocks of Smith strain MCMV salivary gland extracts were prepared from BALB/c mice and titered in a standard plaque assay on BALB/c murine embryonic fibroblast (MEF) cells (J. Gen. Virol. 2002; 83:2983-2993). Mice were injected intraperitoneally (i.p.) with 1×10^5 (C57BL6) plaque forming units (PFU) of MCMV. Virus titers were quantified on MEF cells by standard plaque assay on tissues removed at different times. Treatments were as follows: Thymosin alpha 1 and the scrambled polypeptide (both from SciClone Pharmaceuticals, San Mateo, CA) were supplied as purified (the endotoxin levels were <0.03 pg/ml, by a standard limulus lysate assay) sterile, lyophilized, acetylated polypeptide. The sequences were as follows: Ac-Ser-Asp-Ala-Ala-Val-Asp-Thr-Ser-Ser-Glu -Ile-Thr-Thr-Lys-Asp-Leu-Lys-Glu-Lys-Lys-Glu-Val-Glu-Glu-Ala-Glu-Asn-O (Tα1) SEQ ID NO:1 and Ac-Ala-Lys-Ser-Asp-Val-Lys-Ala-Glu-Thr-Ser-Ser-Glu-Ile-Asp-Thr-Thr-Glu-Leu -Asp-Glu-Lys-Val-Glu-Val-Lys-Ala-Asn-Glu-OH (scrambled peptide) SEQ ID NO:2. The lyophilized powders were reconstituted in sterile water and 200 μg/kg/i.p. were given daily for 7 or 14 consecutive days beginning the day of the infection. Gancyclovir (GCV) (Cymevene; from Recordati, Milan, Italy) was administered at 40 mg/kg/i.p. three times a week, every other day, beginning 6 h after infection. Controls received the scrambled peptide or the diluent alone.
Plaque assay. Plaque assay was determined on cells grown to subconfluence and incubated with serially diluted virus samples for 2 h at 37° C. (10). […]

## Ac-Ser-Asp-Ala-Ala-Val-Asp-Thr-Ser-Ser-Glu -Ile-Thr-Thr-Lys-Asp-Leu-Lys-Glu-Lys-Lys-Glu-Val-Glu-Glu-Ala-Glu-Asn-O (Ac-SDAAVDTSSEITTKDLKEKKEVEEAEN) [Thymosin alpha 1, acidic peptide present in thymus extract with immunoregulatory properties]
[1]
  tumor volume: significantly decreased tumor volume
MCMV; 200 μg/kg for 7 days, both susceptible (BALB/c) and resistant (C57BL6) mice
  viral load in different visceral organs: significantly decreased the viral load
MCMV; BALB/c mice infected with a higher PFU (data not shown)
  viral load: significantly decreased the viral load
MCMV; Thymosin alpha 1 given for 14 days, compared with 7 days
  viral load in visceral organs: higher
MCMV; Tα1 alone, 200 μg/kg/ip daily for 7 days, BALB/c or C57BL6 mice
  viral titers in the lung: decreased the viral titers
MCMV; resistant (C57BL6) mice, a week after infection
  viral load in salivary gland and liver: particularly evident
